Eight compounds from ChEMBL document CHEMBL5465560, “Selectivity Literature for EUbOPEN Chemogenomic Library” (2024) can be followed below.

One test addresses Insulin receptor (Homo sapiens, UniProt P06213). Description: Selectivity interaction (KinomeScan (DiscoverX)) EUB0001079a INSR. The note with it: at 1 µM.
For test [1], the target named is Non-receptor tyrosine-protein kinase TYK2 (Homo sapiens, UniProt P29597). Description: Selectivity interaction (KinomeScan (DiscoverX)) EUB0000092b TYK2. Conditions: at 10 µM.
Test [2] relates to Proto-oncogene tyrosine-protein kinase receptor Ret (Homo sapiens), P07949 [V804L]. In words: (§1) Selectivity interaction (KinomeScan (DiscoverX)) EUB0000092b RET. The note with it: at 10 µM.
The test system of test [3] is Proto-oncogene tyrosine-protein kinase receptor Ret (Homo sapiens), P07949 [V804M]. The test is described as §1. Conditions: at 10 µM.
Test [4] has as its system Proto-oncogene tyrosine-protein kinase receptor Ret (Homo sapiens), P07949 [M918T]. The test is described as §1. The note with it: at 10 µM.
The target in test [5] is Proto-oncogene tyrosine-protein kinase receptor Ret (Homo sapiens, UniProt P07949). The description is as §1. Conditions: at 10 µM.
The target of test [6] is Calcium/calmodulin-dependent protein kinase type 1D (Homo sapiens) (UniProt Q8IU85). In words: Selectivity interaction (KinomeScan (DiscoverX)) EUB0000655a CAMK1D. The note with it: at 10 µM.
The target of test [7] is T1, Serine/threonine-protein kinase RIO1 (Homo sapiens) (UniProt Q9BRS2).
T1 sequence (whole entry): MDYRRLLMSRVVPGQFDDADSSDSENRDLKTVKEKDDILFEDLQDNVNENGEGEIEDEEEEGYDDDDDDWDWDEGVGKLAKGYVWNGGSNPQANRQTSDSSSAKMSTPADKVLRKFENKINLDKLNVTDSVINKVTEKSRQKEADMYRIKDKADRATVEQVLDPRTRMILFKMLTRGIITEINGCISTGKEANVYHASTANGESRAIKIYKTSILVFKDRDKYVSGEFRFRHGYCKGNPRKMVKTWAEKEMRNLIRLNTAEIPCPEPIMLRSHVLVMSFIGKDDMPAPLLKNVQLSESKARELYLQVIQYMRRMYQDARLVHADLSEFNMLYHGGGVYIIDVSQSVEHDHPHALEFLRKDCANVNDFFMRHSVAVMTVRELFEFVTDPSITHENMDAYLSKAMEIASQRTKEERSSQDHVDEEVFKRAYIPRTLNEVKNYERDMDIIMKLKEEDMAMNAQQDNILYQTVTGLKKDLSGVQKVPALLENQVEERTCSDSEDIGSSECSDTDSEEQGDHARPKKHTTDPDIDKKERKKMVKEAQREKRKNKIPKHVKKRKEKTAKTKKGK
Description: Selectivity interaction (KINOMEscan (DiscoverX)) EUB0001868a RIOK1. Conditions: at 1 µM.

In test [8] the target is Transient receptor potential cation channel subfamily M member 6 (Homo sapiens) (UniProt Q9BX84). Description: Selectivity interaction (KinomeScan (DiscoverX)) EUB0000666a TRPM6. The note with it: at 10 µM.
The target of test [9] is Serine/threonine-protein kinase PAK 3 (Homo sapiens) (UniProt O75914). Description: Selectivity interaction (Kinase panel (Z-LYTE Assay)) EUB0001632a PAK3. The note with it: at 10 µM.
Test [10] addresses Polycystin-1 (Homo sapiens) (UniProt P98161). Description: Selectivity interaction (ActivX KiNativ screen (kinase selectivity in THP-1 cell lysates)) EUB0000639a PKD1. The note with it: lysate. The class given is subcellular.
The target in test [11] is T2, Serine/threonine-protein kinase TAO2 (Homo sapiens) (UniProt Q9UL54).
T2 sequence (whole entry): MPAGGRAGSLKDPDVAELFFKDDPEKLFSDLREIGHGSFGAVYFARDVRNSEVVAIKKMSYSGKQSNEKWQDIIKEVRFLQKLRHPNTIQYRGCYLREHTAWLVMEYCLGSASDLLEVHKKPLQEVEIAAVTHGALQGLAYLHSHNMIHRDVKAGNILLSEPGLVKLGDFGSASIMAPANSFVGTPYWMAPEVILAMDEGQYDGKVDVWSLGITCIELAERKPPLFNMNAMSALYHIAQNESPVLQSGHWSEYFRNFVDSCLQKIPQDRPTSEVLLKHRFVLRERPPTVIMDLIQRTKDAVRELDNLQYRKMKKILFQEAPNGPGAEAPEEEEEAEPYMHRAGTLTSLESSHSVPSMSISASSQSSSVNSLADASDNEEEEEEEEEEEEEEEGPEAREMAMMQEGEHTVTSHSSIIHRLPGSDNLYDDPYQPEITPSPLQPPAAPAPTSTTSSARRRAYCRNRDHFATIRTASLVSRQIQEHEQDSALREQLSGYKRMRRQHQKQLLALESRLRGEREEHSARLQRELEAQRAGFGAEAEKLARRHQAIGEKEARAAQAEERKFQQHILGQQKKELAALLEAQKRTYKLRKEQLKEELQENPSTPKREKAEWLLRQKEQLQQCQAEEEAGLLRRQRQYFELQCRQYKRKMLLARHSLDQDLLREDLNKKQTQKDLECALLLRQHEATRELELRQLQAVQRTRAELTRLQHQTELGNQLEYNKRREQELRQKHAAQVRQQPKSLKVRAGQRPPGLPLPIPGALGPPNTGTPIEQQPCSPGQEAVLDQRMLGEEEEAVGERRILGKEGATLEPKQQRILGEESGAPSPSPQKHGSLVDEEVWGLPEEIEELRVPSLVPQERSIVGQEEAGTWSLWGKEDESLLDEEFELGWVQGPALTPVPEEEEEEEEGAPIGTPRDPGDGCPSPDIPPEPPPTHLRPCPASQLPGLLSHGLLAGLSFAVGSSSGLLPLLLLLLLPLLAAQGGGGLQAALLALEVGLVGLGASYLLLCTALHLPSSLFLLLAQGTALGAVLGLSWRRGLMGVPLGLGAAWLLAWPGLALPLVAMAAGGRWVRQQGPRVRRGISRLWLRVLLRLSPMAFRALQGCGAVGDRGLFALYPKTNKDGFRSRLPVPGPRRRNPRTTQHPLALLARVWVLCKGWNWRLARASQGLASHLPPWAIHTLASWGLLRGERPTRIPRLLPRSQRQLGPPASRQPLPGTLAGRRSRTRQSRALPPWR
Description: Selectivity interaction (ActivX KiNativ screen (kinase selectivity in THP-1 cell lysates)) EUB0000639a TAOK2. The class given is subcellular. The note with it: lysate.

The target in test [12] is Epithelial discoidin domain-containing receptor 1 (Homo sapiens) (UniProt Q08345). In words: Selectivity interaction (Kinase panel (Invitrogen)) EUB0000639a DDR1. Conditions: at 200 nM.
The target in test [13] is Mitogen-activated protein kinase kinase kinase kinase 5 (Homo sapiens) (UniProt Q9Y4K4). Description: Selectivity interaction (ActivX KiNativ screen (kinase selectivity in THP-1 cell lysates)) EUB0000639a MAP4K5. The class given is subcellular. The note with it: lysate.
Mitogen-activated protein kinase kinase kinase kinase 5 (Homo sapiens), sequence (Q9Y4K4 whole entry, looked up): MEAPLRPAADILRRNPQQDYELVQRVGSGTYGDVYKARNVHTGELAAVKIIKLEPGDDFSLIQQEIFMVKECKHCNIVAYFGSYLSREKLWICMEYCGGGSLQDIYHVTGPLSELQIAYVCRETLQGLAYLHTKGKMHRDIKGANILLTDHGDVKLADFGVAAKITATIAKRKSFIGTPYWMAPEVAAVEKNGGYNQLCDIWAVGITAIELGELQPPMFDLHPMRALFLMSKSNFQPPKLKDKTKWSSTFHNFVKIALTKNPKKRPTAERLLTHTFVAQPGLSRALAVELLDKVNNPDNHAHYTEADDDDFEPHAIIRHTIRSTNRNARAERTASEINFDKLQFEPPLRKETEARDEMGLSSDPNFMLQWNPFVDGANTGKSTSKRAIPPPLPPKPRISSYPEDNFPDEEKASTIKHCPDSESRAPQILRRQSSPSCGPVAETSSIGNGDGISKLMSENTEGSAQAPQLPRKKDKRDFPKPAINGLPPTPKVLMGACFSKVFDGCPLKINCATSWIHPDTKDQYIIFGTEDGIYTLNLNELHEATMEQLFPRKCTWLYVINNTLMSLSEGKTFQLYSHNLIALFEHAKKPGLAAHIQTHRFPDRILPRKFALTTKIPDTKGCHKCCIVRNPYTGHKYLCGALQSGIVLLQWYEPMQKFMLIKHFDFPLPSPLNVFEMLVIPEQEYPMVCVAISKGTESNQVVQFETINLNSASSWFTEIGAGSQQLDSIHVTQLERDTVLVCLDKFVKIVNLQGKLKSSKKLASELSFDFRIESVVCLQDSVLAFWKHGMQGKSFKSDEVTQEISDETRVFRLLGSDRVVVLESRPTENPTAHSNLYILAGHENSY
Test [14] concerns the target Maternal embryonic leucine zipper kinase (Homo sapiens) (UniProt Q14680). Description: Selectivity interaction (KinomeScan (DiscoverX)) EUB0000595a MELK. Conditions: at 10 µM.

Polycystin-1 (Homo sapiens), sequence (P98161 24-4303 limits assumed): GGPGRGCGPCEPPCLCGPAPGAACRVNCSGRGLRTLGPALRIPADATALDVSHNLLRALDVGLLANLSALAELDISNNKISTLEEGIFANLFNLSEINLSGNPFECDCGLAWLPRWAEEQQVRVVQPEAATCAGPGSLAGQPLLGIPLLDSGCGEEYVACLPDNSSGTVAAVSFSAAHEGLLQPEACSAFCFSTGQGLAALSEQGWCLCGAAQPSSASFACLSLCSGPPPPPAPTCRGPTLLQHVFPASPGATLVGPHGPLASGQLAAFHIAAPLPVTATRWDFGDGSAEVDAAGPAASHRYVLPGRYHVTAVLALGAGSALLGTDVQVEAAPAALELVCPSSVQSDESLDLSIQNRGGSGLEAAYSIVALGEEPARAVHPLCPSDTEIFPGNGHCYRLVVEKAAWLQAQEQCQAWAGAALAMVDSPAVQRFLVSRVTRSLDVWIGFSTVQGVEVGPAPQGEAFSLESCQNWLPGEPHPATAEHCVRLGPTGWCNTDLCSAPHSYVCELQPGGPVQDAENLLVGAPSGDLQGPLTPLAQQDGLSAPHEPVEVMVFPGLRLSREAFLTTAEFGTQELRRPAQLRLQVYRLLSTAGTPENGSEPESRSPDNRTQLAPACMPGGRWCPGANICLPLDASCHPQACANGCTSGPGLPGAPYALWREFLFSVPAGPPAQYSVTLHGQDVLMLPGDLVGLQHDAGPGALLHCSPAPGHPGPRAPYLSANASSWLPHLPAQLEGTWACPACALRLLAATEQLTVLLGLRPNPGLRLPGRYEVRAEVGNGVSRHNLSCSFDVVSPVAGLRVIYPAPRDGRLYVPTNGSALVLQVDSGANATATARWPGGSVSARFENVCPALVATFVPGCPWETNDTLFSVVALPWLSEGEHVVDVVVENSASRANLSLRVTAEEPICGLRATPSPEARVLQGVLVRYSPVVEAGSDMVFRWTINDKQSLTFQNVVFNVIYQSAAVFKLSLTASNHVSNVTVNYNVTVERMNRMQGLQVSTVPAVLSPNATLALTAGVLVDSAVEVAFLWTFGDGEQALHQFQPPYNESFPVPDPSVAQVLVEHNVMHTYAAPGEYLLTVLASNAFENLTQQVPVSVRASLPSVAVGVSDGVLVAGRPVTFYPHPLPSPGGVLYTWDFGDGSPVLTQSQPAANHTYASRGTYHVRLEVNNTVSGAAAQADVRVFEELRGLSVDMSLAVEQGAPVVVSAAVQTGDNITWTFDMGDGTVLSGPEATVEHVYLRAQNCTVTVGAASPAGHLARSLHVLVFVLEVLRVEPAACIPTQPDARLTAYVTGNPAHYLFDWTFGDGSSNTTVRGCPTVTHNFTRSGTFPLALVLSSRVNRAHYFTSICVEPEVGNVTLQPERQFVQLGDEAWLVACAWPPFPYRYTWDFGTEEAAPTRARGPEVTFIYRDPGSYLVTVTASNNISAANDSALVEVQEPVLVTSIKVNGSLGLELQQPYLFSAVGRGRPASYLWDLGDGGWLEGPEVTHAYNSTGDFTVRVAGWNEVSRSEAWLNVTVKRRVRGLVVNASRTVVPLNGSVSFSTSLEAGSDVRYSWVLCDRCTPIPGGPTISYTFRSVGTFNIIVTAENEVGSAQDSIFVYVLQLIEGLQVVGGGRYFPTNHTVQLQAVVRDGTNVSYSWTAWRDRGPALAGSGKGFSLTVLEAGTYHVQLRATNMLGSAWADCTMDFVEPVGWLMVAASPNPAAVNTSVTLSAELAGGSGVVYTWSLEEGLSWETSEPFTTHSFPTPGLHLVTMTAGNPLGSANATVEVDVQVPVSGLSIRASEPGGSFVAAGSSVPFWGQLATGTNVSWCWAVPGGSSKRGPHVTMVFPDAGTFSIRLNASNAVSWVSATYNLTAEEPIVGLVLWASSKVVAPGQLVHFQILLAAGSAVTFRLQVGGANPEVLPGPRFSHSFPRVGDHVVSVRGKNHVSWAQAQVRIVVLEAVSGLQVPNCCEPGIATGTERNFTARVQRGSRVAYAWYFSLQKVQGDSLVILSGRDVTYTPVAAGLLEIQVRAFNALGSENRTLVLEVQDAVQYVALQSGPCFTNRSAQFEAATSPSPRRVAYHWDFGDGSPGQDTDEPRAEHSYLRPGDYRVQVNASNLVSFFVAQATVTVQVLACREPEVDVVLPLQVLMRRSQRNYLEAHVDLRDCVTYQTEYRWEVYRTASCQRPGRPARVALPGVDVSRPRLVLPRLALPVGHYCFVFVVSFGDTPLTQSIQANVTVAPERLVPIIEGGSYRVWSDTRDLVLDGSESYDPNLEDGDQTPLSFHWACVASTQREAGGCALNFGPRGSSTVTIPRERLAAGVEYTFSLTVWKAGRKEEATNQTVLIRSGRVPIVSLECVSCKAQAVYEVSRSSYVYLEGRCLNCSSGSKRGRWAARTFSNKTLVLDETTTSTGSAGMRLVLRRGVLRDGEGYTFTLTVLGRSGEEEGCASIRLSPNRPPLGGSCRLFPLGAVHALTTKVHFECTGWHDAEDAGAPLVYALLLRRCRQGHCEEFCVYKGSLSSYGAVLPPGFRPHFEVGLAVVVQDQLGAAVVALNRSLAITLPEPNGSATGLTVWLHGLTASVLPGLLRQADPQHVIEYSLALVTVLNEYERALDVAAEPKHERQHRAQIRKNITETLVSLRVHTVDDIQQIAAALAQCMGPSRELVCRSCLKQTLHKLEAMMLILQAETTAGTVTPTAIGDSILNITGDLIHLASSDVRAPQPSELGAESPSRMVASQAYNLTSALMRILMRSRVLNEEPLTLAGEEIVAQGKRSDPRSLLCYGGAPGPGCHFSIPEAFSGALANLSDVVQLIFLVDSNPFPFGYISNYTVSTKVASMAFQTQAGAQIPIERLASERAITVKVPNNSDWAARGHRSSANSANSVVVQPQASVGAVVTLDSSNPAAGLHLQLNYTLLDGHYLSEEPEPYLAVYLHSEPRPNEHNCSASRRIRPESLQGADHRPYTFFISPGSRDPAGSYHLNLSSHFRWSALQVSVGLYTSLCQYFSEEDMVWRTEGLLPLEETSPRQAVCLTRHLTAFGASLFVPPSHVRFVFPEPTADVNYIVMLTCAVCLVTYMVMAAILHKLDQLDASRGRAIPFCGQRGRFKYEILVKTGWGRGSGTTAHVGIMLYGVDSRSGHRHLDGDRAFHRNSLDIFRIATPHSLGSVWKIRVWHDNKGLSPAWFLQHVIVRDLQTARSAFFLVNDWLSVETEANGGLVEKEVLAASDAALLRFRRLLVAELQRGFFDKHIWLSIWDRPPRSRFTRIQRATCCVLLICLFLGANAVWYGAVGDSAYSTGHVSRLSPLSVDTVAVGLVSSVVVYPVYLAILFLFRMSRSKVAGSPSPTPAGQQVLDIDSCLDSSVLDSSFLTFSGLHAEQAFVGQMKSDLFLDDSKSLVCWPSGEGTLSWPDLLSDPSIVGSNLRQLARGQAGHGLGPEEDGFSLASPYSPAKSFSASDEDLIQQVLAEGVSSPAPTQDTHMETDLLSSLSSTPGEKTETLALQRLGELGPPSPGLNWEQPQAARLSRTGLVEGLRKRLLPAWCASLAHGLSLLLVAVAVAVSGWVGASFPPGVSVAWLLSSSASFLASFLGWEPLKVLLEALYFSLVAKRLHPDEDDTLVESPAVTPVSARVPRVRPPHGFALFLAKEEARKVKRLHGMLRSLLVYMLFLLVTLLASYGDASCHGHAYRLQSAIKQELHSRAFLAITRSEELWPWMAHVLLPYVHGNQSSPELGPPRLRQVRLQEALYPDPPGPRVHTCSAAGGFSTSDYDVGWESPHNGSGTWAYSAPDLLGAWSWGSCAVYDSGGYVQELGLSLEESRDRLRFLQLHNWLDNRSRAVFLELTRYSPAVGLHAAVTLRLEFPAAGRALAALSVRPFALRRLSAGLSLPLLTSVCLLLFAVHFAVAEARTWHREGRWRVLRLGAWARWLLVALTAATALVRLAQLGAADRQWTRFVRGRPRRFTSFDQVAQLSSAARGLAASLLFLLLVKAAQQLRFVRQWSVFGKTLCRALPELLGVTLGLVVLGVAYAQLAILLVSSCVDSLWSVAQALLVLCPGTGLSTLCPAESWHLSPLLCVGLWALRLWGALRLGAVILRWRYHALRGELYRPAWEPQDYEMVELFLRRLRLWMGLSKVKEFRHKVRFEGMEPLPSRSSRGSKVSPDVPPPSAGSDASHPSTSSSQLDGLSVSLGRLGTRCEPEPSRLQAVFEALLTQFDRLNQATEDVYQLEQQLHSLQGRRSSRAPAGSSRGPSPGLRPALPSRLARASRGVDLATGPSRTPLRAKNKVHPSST

As for `Nc1cnc(N2CCc3cc(S(=O)(=O)Nc4c(F)cc(Cl)cc4F)cc(N4CCCC4=O)c32)nc1` [TP-020n], on Insulin receptor, the % of control was found to be 89%.
`CCC(=O)N1CCN(c2ccc(-n3c(=O)ccc4cnc5ccc(-c6cnc7ccccc7c6)cc5c43)cc2C(F)(F)F)CC1`: the % of control amounted to 70% in test [1]; 66% in [2]; 69% in test [3]; 51% in test [4]; 44% in test [5].
Consider `CN(C)CCOc1ccc(-c2nc(-c3ccncc3)c(-c3ccc4c(c3)CC/C4=N\O)[nH]2)cc1`, for which, in test [6], the % of control came to 100%.
Turning to `Cc1cc(-c2ccnc(Nc3cnn(C)c3)n2)ccc1CNC(=O)N1CC(OC(C)C)C1`, in [7], the % of control turned out to be 17%.
Take `O=C(NOC[C@H](O)CO)c1ccc(F)c(F)c1Nc1ccc(I)cc1F`: in test [8], the % of control came out at 100%.
Consider `Cn1cc(-n2cnc3c(NCc4nc5cc(Cl)c(Cl)cc5[nH]4)nc(N4CCOCC4)nc32)cn1`, for which the % of control in test [9] is -20.7%.
As for `CC[C@@H]1[C@H](F)C(=O)N[C@@H]1COc1nccc2cc(C(N)=O)c(OC)cc12` [ZIMLOVISERTIB], the % of inhibition was -7.2% in test [10] (at 0.01 µM); -3.5% in test [10] (at 0.04 µM); -8.9% in test [10] (at 0.2 µM); 8% in [10] (at 1 µM); 8.9% in test [10] (at 5 µM); 17.1% in test [11] (at 0.01 µM). The % of inhibition in [11] (at 0.04 µM) was 2%; in test [11] (at 0.2 µM) it was -6.6%; in [11] (at 1 µM), -12.9%; in test [11] (at 5 µM), 16.2%; in [12] it was -1.2%; in [13] (at 0.01 µM), -0.9%. For the same compound, the % of inhibition in [13] (at 0.04 µM) came out at 0%; in test [13] (at 0.2 µM), 3.2%; in [13] (at 1 µM), 9.9%; in test [13] (at 5 µM) it was 11.8%.
`COCC(=O)NC/C=C/c1ccc2ncnc(Nc3ccc(Oc4ccc(C)nc4)c(C)c3)c2c1` [CP-724714]: in [14], the % of control was 92%.
